# Data taken from patent US20090155209A1, “NOVEL MACROCYCLIC INHIBITORS OF HEPATITIS C VIRUS REPLICATION” (priority 2007, published 2009).
# Several values for one entry are separate records, joined by “and”; a condition that tells them apart may be missing. Equal entries are not always repeated. Where two headings read alike, the source gives them in different places.
# Legend:
# [1] = Compartmental PK model fitted to plasma data of the 400 mg fed cohort; type: in vivo, healthy volunteers (human); settings: median, compartmental PK parameter
# Description: The compartmental model was constructed to fit the PK data from the 400 mg, fed cohort only. Candidate PK models were fit to plasma data using weighted, non-linear regression implemented in Adapt 5. (1, 2) Each subjects' data were fit separately for a total of 10 fitted profiles. Model discrimination was accomplished according to the “Rule of Parsimony” based on Akaike's Information Criterion. (3, 4)
# The most robust fit to the data was obtained using a three-compartment model (one absorptive, two distributive) with first order absorption and elimination. […] No a priori assumptions regarding the number of phases were made; the fit of the observed data and the AIC were used to guide the selection of a one, two, or three-phase absorption.
# [2] = test system: HCV; assay: EC90 (viral sensitivity); type: cell-based, hepatitis C virus (HCV); settings: Hepatitis C virus
# [3] = Simulated steady-state plasma and liver profiles: predicted AUC0-24, Cavg, % Time>EC90, Ctrough,liver/EC90; design: species or system human; settings: 8 or 12 hour dose interval
# Text: Fitted parameters were used to compute predicted steady-state AUC0-24 and integrated average steady-state concentrations (Cavg) in plasma and in liver. Three hypothetical liver to plasma ratios (LPR) were considered given the variability seen in various animal species: 8 to 1, 30 to 1, and 100 to 1. The LPR seen in rats was approximately 8:1, LPR in dogs was approximately 25-40:1 and LPR in monkeys was approximately 80-125:1.
# Using ADAPT 5, simulated plasma profiles were generated using individual subject fitted parameters and two different dosing regimens, 800 mg Q12H and 500 mg Q8H, dosed to steady-state.
# By simulating plasma concentration profiles at steady-state, it is possible to predict ITMN-191 concentrations in liver and then index these to viral sensitivity. Summary statistics for the percentage of a dosing interval for which predicted liver concentrations remain above the EC90 (% Time>EC90) and the ratio of predicted trough concentration in the liver to the EC90 (Ctrough, liver/EC90) are provided in Table 12.
# [4] = Single ascending dose study, fasted and fed: safety and non-compartmental plasma PK; type: in vivo, healthy volunteers (human); settings: for AUC0-inf / Cmax / half-life / Tmax: human, plasma, oral; for Tmax: read-out: Tmax
# Description: A single ascending dose (SAD) study of the compound 100 was conducted in healthy volunteers. The compound 100 was administered as monotherapy both with and without food. The safety and pharmacokinetic profile of the single dose of the compound 100 was assessed.
# Interim, blinded data were used for Pharmacokinetic (PK) study relating to food effects. With the exception of the 400 mg cohort, eight subjects were studied at each dose (single doses of 100, 200, or 800 mg of the sodium salt of the compound 100, which may be referred to herein as ITMN-191, administered in the fasting state). In the 400 mg cohort, ten subjects received single 400 mg doses of ITMN-191 under both fasted and fed conditions with a 5-day washout period between dosing. In the 100 mg cohort, subjects were sampled within 1 hour before dosing and at 0.5, 1, 1.5, 2, 2.5, 3, 4, 6, 8, 12, 18, 24, 32 and 48 hours after dosing. For subsequent cohorts, subjects were sampled within 1 hour before dosing and at 0.25, 0.5, 1, 1.5, 2, 2.5, 3, 4, 6, 8, 12, 18, 24, and 32 hours after dosing. Nominal (not actual) sampling times were used for the analysis. PK samples were analyzed using liquid chromatography-tandem mass spectrometry (LC/MS/MS with API 4000 mass spectrometer) following solid-phase extraction. The upper and lower limits of quantitation (ULOQ and LLOQ) are 100 and 0.01 ng/mL, respectively.
# Pharmacokinetic parameter estimates were calculated using non-compartmental methods (implemented using Microsoft Excel®). Half-lives were determined by visual inspection of the log concentration-time plots to choose the terminal phase (minimum of three detectable observations). Using linear regression of the chosen terminal phase observations, elimination rate constants were calculated as the negative slope of the regression line and half-life as the natural log of 2 divided by the elimination rate constant.
# Ten subjects received single 1600 mg doses of ITMN-191 under both fasted and fed conditions with a 5-day washout period between dosing. For each condition, subjects were sampled within 1 hour before dosing and at 0.25, 0.5, 1, 1.5, 2, 2.5, 3, 4, 6, 8, 12, 18, 24, and 32 hours after dosing. Pharmacokinetic parameter estimates were calculated using non-compartmental methods. Half-life (t1/2) was determined by visual inspection of the log concentration-time plots to choose the terminal phase (minimum of three detectable observations). Using linear regression of the chosen terminal phase observations, elimination rate constants were calculated as the negative slope and half-life as the natural log of 2 divided by the elimination rate constant.
compound,measurement,setting,value
CC(C)(C)OC(=O)N[C@H]1CCCCC/C=C\[C@@H]2C[C@@]2(C(=O)NS(=O)(=O)C2CC2)NC(=O)[C@@H]2C[C@@H](OC(=O)N3Cc4cccc(F)c4C3)CN2C1=O [ITMN-191],half-life,"[1]; human, plasma, oral, n = 10, read-out: T1/2,λz (converted)",1.53 h
same,Vd/F,"[1]; human, plasma, oral, n = 10, read-out: Vss/F",2950 L
same,CLt/F,[1]; n = 10,3800 L/h
same,Vc/F,[1]; n = 10,1975 L
same,EC90,[2],14.1 nM and 0.0106 µg/mL
same,accumulation associated with multiple doses,[3],negligible
same,fold increase of median AUC0-inf and Cmax,[4]; 1600 mg fasted versus 800 mg cohort,3-4 fold
same,dose linearity of pharmacokinetics based on AUC0-inf,[4]; dose range of 100-800 mg,linear
same,AUC0-inf,"[4]; 100 mg, median, single 100 mg dose, fasting state, N=8, read-out: AUC0-inf",20.4 ng·h/mL
same,Cmax,"[4]; 100 mg, median, single 100 mg dose, fasting state, N=8, read-out: Cmax",14.7 ng/mL
same,half-life,"[4]; 100 mg, median, single 100 mg dose, fasting state, N=8, read-out: T1/2 (converted)",1.78 h
same,Tmax,"[4]; 100 mg, median, single 100 mg dose, fasting state, N=8",0.75 h
same,AUC0-inf,"[4]; 200 mg, median, single 200 mg dose, fasting state, N=8, read-out: AUC0-inf",36.8 ng·h/mL
same,Cmax,"[4]; 200 mg, median, single 200 mg dose, fasting state, N=8, read-out: Cmax",30.2 ng/mL
same,half-life,"[4]; 200 mg, median, single 200 mg dose, fasting state, N=8, read-out: T1/2 (converted)",1.49 h
same,Tmax,"[4]; 200 mg, median, single 200 mg dose, fasting state, N=8",0.75 h
same,AUC0-inf,"[4]; 400 mg, median, single 400 mg dose (Fasted), N=10, read-out: AUC0-inf",81 ng·h/mL
same,Cmax,"[4]; 400 mg, median, single 400 mg dose (Fasted), N=10, read-out: Cmax",63.8 ng/mL
same,half-life,"[4]; 400 mg, median, single 400 mg dose (Fasted), N=10, read-out: T1/2 (converted)",1.53 h
same,Tmax,"[4]; 400 mg, median, single 400 mg dose (Fasted), N=10",1 h
same,AUC0-inf,"[4]; 400 mg, median, single 400 mg dose (Fed), N=10, read-out: AUC0-inf",113 ng·h/mL
same,Cmax,"[4]; 400 mg, median, single 400 mg dose (Fed), N=10, read-out: Cmax",56.6 ng/mL
same,half-life,"[4]; 400 mg, median, single 400 mg dose (Fed), N=10, read-out: T1/2 (converted)",1.74 h
same,Tmax,"[4]; 400 mg, median, single 400 mg dose (Fed), N=10",2.5 h
same,AUC0-inf,"[4]; 800 mg, 800 mg cohort, fasting, single dose, read-out: median AUC0-inf",194 ng·h/mL
same,Cmax,"[4]; 800 mg, 800 mg cohort, fasting, single dose, read-out: median Cmax",216 ng/mL
same,AUC0-inf,"[4]; 800 mg, median, single 800 mg dose, fasting state, N=8, read-out: AUC0-inf",194 ng·h/mL
same,Cmax,"[4]; 800 mg, median, single 800 mg dose, fasting state, N=8, read-out: Cmax",216 ng/mL
same,half-life,"[4]; 800 mg, median, single 800 mg dose, fasting state, N=8, read-out: T1/2 (converted)",1.91 h
same,Tmax,"[4]; 800 mg, median, single 800 mg dose, fasting state, N=8",0.5 h
same,AUC0-inf,"[4]; 1600 mg, 1600 mg fasted cohort, single dose, read-out: median AUC0-inf",737 ng·h/mL
same,Cmax,"[4]; 1600 mg, 1600 mg fasted cohort, single dose, read-out: median Cmax",685 ng/mL
same,AUC0-inf,"[4]; 1600 mg, Geometric Mean of 10 subjects, single 1600 mg dose, Fasted, read-out: AUC0-inf",667 ng·h/mL
same,Cmax,"[4]; 1600 mg, Geometric Mean of 10 subjects, single 1600 mg dose, Fasted, read-out: Cmax",538 ng/mL
same,half-life,"[4]; 1600 mg, Geometric Mean of 10 subjects, single 1600 mg dose, Fasted, read-out: t½ (converted)",2.38 h
